Assay results from patent publication US6025333A, “Treatment of CNS tumors with metalloprotease inhibitors” (Erziehungsdirektion of the Canton Zurich, priority 1995, dated 2000).
Where two headings read alike, the source gives them in different places. Square brackets hold non-standard residues; d marks the D form. Peptide text beside a SMILES is read from it. * marks the point of attachment. Sta = CC(C)C[C@H](N)[C@@H](O)CC(=O)O; Isovaleryl = CC(C)CC(=O)*; Cbz = O=C(OCc1ccccc1)*

Legend:
C6 cells [1] = assay: C6 cell spreading on CNS myelin protein liposomes, antibody and/or 1,10-phenanthroline; assay type: cell-based, rat; conditions: 0.3 mM 1,10-phenanthroline
Description: Substrates were tested as described in Section 7.1.2 supra). Myelin fractions or liposomes in medium A were dried onto the wells of polylysine-coated Greiner dishes (Greiner, Murtingen, FRG). […] When substrates were tested in the presence of antibody, bound substrates were incubated in the presence of undiluted hybridoma supernatants or in the presence of 1:30 dilutions (in Hank's medium) of antisera. After 15 minutes at 37° C., four-fifths of the antibody-containing medium was removed and substituted with cell-containing medium. An analogous preincubation procedure was used in experiments aimed at testing HBO nonpermissiveness. 3T3 experiments were usually scored after a culture period of 1 hour, whereas SCG neurons were allowed to grow processes for 24 hours in culture. When 3T3 cells were preincubated with hybridoma supernatant, incubations were performed in gently agitated suspensions for a period of 15 minutes at room temperature. Cells were then sedimented, resuspended in culture medium, and added to substrate-adsorbed Greiner dish wells. 3T3 cells were added at a density of 30,000 cells per cm^2, and SCG neurons were added at a density of 20,000 cells per cm^2.
Myelin from rat spinal cord (CNS) or sciatic nerve (PNS) purified on a discontinuous sucrose gradient as described in Section 6.1.5., was dried overnight onto PLYS coated wells (20 μg protein/well of 100 mm^2 surface). Unbound membranes were removed by three washes with Ca^2+ /Mg^2+ -free Hank's solution. […] Experiments were scored at different time points using a phase contrast microscope equipped with a photocamera. Quantifications were done using a surface integration program; three arbitrary fields were photographed for each well at a magnitude of 80×, at least 25 cells per picture were measured. […] Results are expressed as μ^2 of projected cell surface, or as degree, which was calculated by subtracting from the projected surface value of a spreading cell, the surface value of a completely spheric cell.

C6 cells [2] = assay: C6 cell spreading on PLYS or CNS myelin with protease inhibitors; assay type: cell-based, rat; conditions: for activity at 300 µM: C6, 2.5 h; for activity at 300 µM / Spreading on: PLYS (% of control on PLYS) / Spreading on: CNS (% of control on PLYS): 150 minutes; for inhibition at 300 µM: C6; for inhibition at 300 µM / Inhibition on CNS (%): PLYS value minus CNS myelin value
Description: Rat C6, mouse NIH 3T3 and B16 cells were cultured in Dulbecco's modified Eagle's medium (DMEM) supplemented with 10% fetal calf serum (FCS), usually to maximally 70-80% confluency. Cells were harvested with a short trypsin treatment (0.1% in Ca^2+ /Mg^2+ -free Hank's medium for 90 seconds) stopped by addition of FCS in excess, collected by centrifugation. Cells were resuspended in either DMEM/FCS or defined serum-free medium (MEM) and used for experiments. Dissociated rat CNS glial cells were prepared starting from optic nerves of 6-7 days old Lewis rats as described in Section 6.1.1, supra and plated into poly-D-lysine (PLYS) coated wells (100 mm^2, 100 μl medium) at a density of 20,000 cells per well. The culture medium was an enriched L15 medium with 5% rat serum, penicillin and streptomycin. C6, 3T3 and B16 cells were added to 2 day old cultures at a concentration of 30,000 cells per well, incubated for two hours and fixed with warm 4% formalin in phosphate buffer. Inhibitory oligodendrocytes were identified by double labelling using the specific antibodies O1 and O4 (see Section 6.1.3, supra).
(§1) Myelin from rat spinal cord (CNS) or sciatic nerve (PNS) purified on a discontinuous sucrose gradient as described in Section 6.1.5., was dried overnight onto PLYS coated wells (20 μg protein/well of 100 mm^2 surface). Unbound membranes were removed by three washes with Ca^2+ /Mg^2+ -free Hank's solution. Myelin coated wells were immediately used in substrate testing assays by the addition of 9,000 cells (C6, 3T3, or B16) per cm^2. Alternatively, we used extracted CNS myelin protein, or SDS-PAGE purified 35 and 250 kD inhibitory proteins reconstituted in liposomes (see Section 7.1.5, supra). Experiments were scored at different time points using a phase contrast microscope equipped with a photocamera. Quantifications were done using a surface integration program; three arbitrary fields were photographed for each well at a magnitude of 80×, at least 25 cells per picture were measured. Each point represents the mean of at least 3 wells±SEM. Results are expressed as μ^2 of projected cell surface, or as degree, which was calculated by subtracting from the projected surface value of a spreading cell, the surface value of a completely spheric cell.

3T3 cells = assay: Treatment of CNS myelin with C6 plasma membranes, then 3T3 spreading and 3H-thymidine incorporation; assay type: cell-based, mouse; conditions: for effect on the C6 plasma membrane effect (neutralization of CNS myelin inhibitory activity): blockers added to C6 plasma membranes
Description: as §1
C6 cells grown to 80% confluency were washed twice with Hank's medium, and harvested in 20 ml 8.5% sucrose, 50 mM NaCl, 10 mM Tris buffer, pH 7.4, using a rubber policeman. After mechanical homogenization through a series of needles of decreasing size, a low purity plasma membrane fraction was obtained by centrifugation (5 minutes at 3000× g, 10 minutes at 8000× g, and then 2 hours at 100,000× g). A higher purity fraction was isolated by loading the material on a discontinuous sucrose gradient, containing 50 mM NaCl, 10 mM Tris, pH 7.4 (Quigley, 1976, J. Cell Biol. 71: 472-486). 20-40% sucrose interphase (C6 plasma membranes fraction) and 40-60% sucrose interphase (C6 mitochondrial fraction) were collected, washed in Hank's medium and resuspended in MEM.
CNS myelin coated PLYS wells were prepared as described in the previous section, but instead of being immediately tested as substrate, they were first incubated with 50 μl of C6 plasma membranes (containing 0.8 mg protein/ml MEM) at 37° for 30 minutes. Dishes were then rinsed twice with Hank's medium and immediately used as substrates for 3T3 cells. In some experiments, protease blockers were added to the membranes using 10 times concentrated solutions.

C6 cells [3] = assay: C6 cell attachment and spreading on rat cerebellar frozen sections; assay type: cell-based; conditions: 1,10-phenanthroline 50, 100, 200 and 300 μM; cbz-tyr-tyr 100 μM
Description: Adult rat cerebellum frozen sections were prepared and dried on glass coverslips. 70,000 C6, 3T3, or B16 cells in 100 μl were added to each well containing slices previously rinsed with cold DMEM/FCS. Cultures were incubated for 2 days at 37° C. Cultures were then fixed and stained with cresyl violet. Three to four cerebellum slices were used per point per experiment, with each experiment being repeated at least 2 times.

C6 cells [4] = assay: C6 cell infiltration into optic nerve explants; assay type: cell-based, rat; conditions: nerves injected with 4 μl of 3 mM solution; medium 0.5 mM peptide; 14 days
Description: Optic nerve and sciatic nerve explants were prepared as described (Schwab and Thoenen, 1985, J. Neurosci. 5:2415-2423). Briefly, the nerves were rapidly dissected from about 8 week old male rats, cleaned from the meninges, 3 times frozen and thawed using liquid nitrogen, and placed under a teflon ring (diameter 13 mm, thickness 1 mm) sealed to a culture dish with silicon grease. Two chambers connected only by the explants were in this way obtained. 300,000 C6, 3T3 or B16 cells were plated in the inner chamber in DMEM/FCS and incubated for 5 to 20 days. The medium was changed every other day. Cultures were fixed overnight with 4% formalin. The nerve explants were mounted with Tissue-Tek, 10 to 15 μm sections were cut in a cryostate and collected on gelatine coated cover slips. After drying at room temperature overnight, the sections were stained in 0.75% cresyl violet, and evaluated. The infiltrated cells were counted for each 0.1 mm of the explants, starting from the tip where cells were added. Due to the 15 day incubation, the explants were often different in diameter. Therefore, only the central part of the nerves (0.25 mm) were considered, since only this part of the explants presented a good histological quality. Inhibition experiments were performed with nerve explants previously injected from both sides with 2 μl of 3 mM cbz-tyr-tyr or cbz-ala-phe solutions.

[5] = Rattus norvegicus, inhibitor 0.3 mM, read-out: Spreading on: PLYS (% of control on PLYS)
[6] = Rattus norvegicus, inhibitor 0.3 mM, CNS myelin, read-out: Spreading on: CNS (% of control on PLYS)
[7] = Rattus norvegicus, inhibitor 0.3 mM

Molecule | inhibition of C6 cell spreading on CNS myelin (C6 cells [2]) | activity at 300 µM (C6 cells [2]; [5]) [%] | activity at 300 µM (C6 cells [2]; [6]) [%] | inhibition at 300 µM (C6 cells [2]; [7]) [%] | effect on the C6 plasma membrane effect (neutralization of CNS myelin inhibitory activity) (3T3 cells) | distribution and behavior of C6 cells on white matter of cerebellar frozen sections (C6 cells [3]) | Spreading on: PLYS (% of control on PLYS) (C6 cells [2]; inhibitor 0.3 mM) | Spreading on: CNS (% of control on PLYS) (C6 cells [2]; inhibitor 0.3 mM, CNS myelin) | Inhibition on CNS (%) (C6 cells [2]; inhibitor 0.3 mM) | further results
c1cnc2c(c1)ccc1cccnc12 [1,10-phenanthroline] | up to 67% | 97 | 30 | 67 | completely blocked | dramatically changed the distribution and behavior of C6 cells on the white matter areas | – | – | – | spreading value on: CNS lipos. (C6 cells [1]; substrate preadsorbed with the named antibody or none, 150 minutes): 1.35 μm^2 10^3; spreading value on: PLYS (C6 cells [1]; with the named antibody or none, 150 minutes): 2.49 μm^2 10^3; % inhibition on CNS lipos. (C6 cells [1]; with the named antibody or none, relates to PLYS): 46%; concentrations exerting a general toxic effect on all substrates (C6 cells [2]; C6 cells, 3 hours, FIG. 22): above 0.5 mM; IC50 (C6 cells [2]; Rattus norvegicus, C6 cells on CNS myelin, 3 hours (FIG. 22), read-out: Half maximal inhibition of C6 spreading on CNS myelin (IC50)): 200 µM; effect on C6 cell spreading on PLYS, glass and PNS myelin (C6 cells [2]; concentrations up to 0.5 mM): did not impair C6 cell spreading; 3T3 Cell Spreading (%) (3T3 cells; 3T3 on CNS myelin, alone or preincubated with C6 PM without/with the named inhibitor, 150 minutes, PLYS = 100): 17%; 3H-Thymidine Incorporation (%) (3T3 cells; 3T3 on CNS myelin, alone or preincubated with C6 PM without/with the named inhibitor, 20 hours, PLYS = 100): 50%
CC(C)CC(=O)N[C@H](C(=O)N[C@H](C(=O)N[C@@H](CC(C)C)[C@@H](O)CC(=O)N[C@@H](C)C(=O)N[C@@H](CC(C)C)[C@@H](O)CC(=O)O)C(C)C)C(C)C [pepstatine] (Isovaleryl-VV[Sta]A[Sta]-OH) | – | 98 | 95 | 3 | did not inhibit this effect | – | – | – | – | –
O=C(N[C@@H](Cc1ccc(O)cc1)C(=O)N[C@@H](Cc1ccc(O)cc1)C(=O)O)OCc1ccccc1 [cbz-tyr-tyr, carbobenzoxy-tryosine-tyrosine] (Cbz-Tyr-Tyr-OH) | – | – | – | – | – | dramatically changed the distribution and behavior of C6 cells on the white matter areas | 101 % of control on PLYS | 56 % of control on PLYS | 45 | C6 cell infiltration into optic nerve explants (C6 cells [4]): inhibited C6 cell infiltration in all the 8 nerves examined
CC(=O)N[C@@H](CC(C)C)C(=O)N[C@@H](CC(C)C)C(=O)N[C@H](C=O)CCCNC(=N)N [leupeptine] | – | – | – | – | did not inhibit this effect | – | 91 % of control on PLYS | 83 % of control on PLYS | 8 | –
carbobenzoxy-glycine-phenylalanine-amide [cbz-gly-phe-NH2] | 55% | – | – | – | completely blocked | – | – | – | – | Spreading on: PLYS (% of control on PLYS) (C6 cells [2]; inhibitor 1.0 mM): 100 % of control on PLYS; Spreading on: CNS (% of control on PLYS) (C6 cells [2]; inhibitor 1.0 mM, CNS myelin): 45 % of control on PLYS; Inhibition on CNS (%) (C6 cells [2]; inhibitor 1.0 mM): 55%
